The supplement of paper PMC4862054

Legend:
Settings in all cases: incubation time: 72 h
BT-474 [1] = assay: normalised response (% of control), CellTox Green; higher = less cell death (100 = DMSO, 0 = benzethonium chloride kill control)
Method in brief: (§1)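 Normalised signals at single concentrations make up the values. They come from breast cancer cell lines seeded (20 µl suspension) into 384-well plates with compound at 5 concentrations in 10-fold steps over a compound-specific 10,000-fold range, incubated 72 h, and read for CellTox Green fluorescence then CellTiter-Glo luminescence. Each plate was normalised to 0.1 % DMSO (100) and a positive kill control (0).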

BT-549 [2] = assay: as above
Method in brief: as §1

CAL-120 [3] = assay: as above
Method in brief: as §1

CAL-148 [4] = assay: as above
Method in brief: as §1

CAL-51 [5] = assay: as above
Method in brief: as §1

CAL-85-1 [6] = assay: as above
Method in brief: as §1

DU-4475 [7] = assay: as above
Method in brief: as §1

HCC1599 [8] = assay: as above
Method in brief: as §1

HCC1937 [9] = assay: as above
Method in brief: as §1

HDQ-P1 [10] = assay: as above
Method in brief: as §1

Hs578T [11] = assay: as above
Method in brief: as §1

MCF-10A [12] = assay: as above
Method in brief: as §1

MDA-MB-231 [13] = assay: as above
Method in brief: as §1

MDA-MB-436 [14] = assay: as above
Method in brief: as §1

MDA-MB-453 [15] = assay: as above
Method in brief: as §1

MDA-MB-468 [16] = assay: as above
Method in brief: as §1

MFM-223 [17] = assay: as above
Method in brief: as §1

BT-474 [18] = assay: normalised response (% of control), CellTiter-Glo; higher = more viable cells (100 = DMSO, 0 = benzethonium chloride kill control)
Experimental: (§2)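 DSRT, 72 h incubation, CellTox Green / CellTiter-Glo readout. Signal is normalised to DMSO and benzethonium chloride controls. Value is the normalised response at the highest dose.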

BT-549 [19] = assay: as above
Experimental: as §2

CAL-120 [20] = assay: as above
Experimental: as §2

CAL-148 [21] = assay: as above
Experimental: as §2

CAL-51 [22] = assay: as above
Experimental: as §2

CAL-85-1 [23] = assay: as above
Experimental: as §2

DU-4475 [24] = assay: as above
Experimental: as §2

HCC1143 [25] = assay: as above
Experimental: as §2

HCC1599 [26] = assay: as above
Experimental: as §2

HCC1937 [27] = assay: as above
Experimental: as §2

HDQ-P1 [28] = assay: as above
Experimental: as §2

Hs578T [29] = assay: as above
Experimental: as §2

MCF-10A [30] = assay: as above
Experimental: as §2

MDA-MB-231 [31] = assay: as above
Experimental: as §2

MDA-MB-436 [32] = assay: as above
Experimental: as §2

MDA-MB-453 [33] = assay: as above
Experimental: as §2

MDA-MB-468 [34] = assay: as above
Experimental: as §2

MFM-223 [35] = assay: as above
Experimental: as §2

SK-BR-3 = assay: as above
Experimental: as §2

HCC1143 [36] = assay: normalised response (% of control), CellTox Green; higher = less cell death (100 = DMSO, 0 = benzethonium chloride kill control)
Method in brief: as §1

SMILES	normalised response (BT-474 [1]) [%]	normalised response (BT-549 [2]) [%]	normalised response (CAL-120 [3]) [%]	normalised response (CAL-148 [4]) [%]	normalised response (CAL-51 [5]) [%]	normalised response (CAL-85-1 [6]) [%]	normalised response (DU-4475 [7]) [%]	normalised response (HCC1599 [8]) [%]	normalised response (HCC1937 [9]) [%]	normalised response (HDQ-P1 [10]) [%]	normalised response (Hs578T [11]) [%]	normalised response (MCF-10A [12]) [%]	normalised response (MDA-MB-231 [13]) [%]	normalised response (MDA-MB-436 [14]) [%]	normalised response (MDA-MB-453 [15]) [%]	normalised response (MDA-MB-468 [16]) [%]	normalised response (MFM-223 [17]) [%]	normalised response (BT-474 [18]) [%]	normalised response (BT-549 [19]) [%]	normalised response (CAL-120 [20]) [%]	normalised response (CAL-148 [21]) [%]	normalised response (CAL-51 [22]) [%]	normalised response (CAL-85-1 [23]) [%]	normalised response (DU-4475 [24]) [%]	normalised response (HCC1143 [25]) [%]	normalised response (HCC1599 [26]) [%]	normalised response (HCC1937 [27]) [%]	normalised response (HDQ-P1 [28]) [%]	normalised response (Hs578T [29]) [%]	normalised response (MCF-10A [30]) [%]	normalised response (MDA-MB-231 [31]) [%]	normalised response (MDA-MB-436 [32]) [%]	normalised response (MDA-MB-453 [33]) [%]	normalised response (MDA-MB-468 [34]) [%]	normalised response (MFM-223 [35]) [%]	normalised response (SK-BR-3) [%]	normalised response (HCC1143 [36]) [%]
O=C(O)C1(C(=O)O)CCC1.[NH2-].[NH2-].[Pt+2] [Carboplatin] (10000 nM)	106	88.1	103	97.8	97.1	99.3	99.8	100	101	80.6	135	117	103	99.8	94.3	108	94	98.8	103	101	103	114	96.4	96.9	103	108	89.2	101	99.3	99.2	96.9	92.5	95.8	92.4	102	92.8	–
Nc1nc(F)nc2c1ncn2[C@@H]1O[C@H](CO)[C@@H](O)[C@@H]1O [Fludarabine] (10000 nM)	97.5	93.6	96	93	101	68.5	97.6	101	91.6	105	93.3	101	103	84.9	98.5	119	–	82.9	79.1	86.1	87.6	125	83.9	106	69.9	78.9	86.3	96.3	98.3	114	95.2	53.2	112	105	108	99	116
CCN(CC)CCCC(C)Nc1c2ccc(Cl)cc2nc2ccc(OC)cc12 (centres undefined) [Mepacrine] (50000 nM)	104	97.8	95.8	88	99.1	101	96.4	93.3	112	99.8	58.1	103	–	91.2	61.2	89.7	84.8	100	106	106	91	87.4	103	92.2	99.2	113	100	101	97.7	100	94.8	97	98.8	102	93.5	89.3	104
O=C(O)C(=O)O.[NH-][C@@H]1CCCC[C@H]1[NH-].[Pt+2] [Oxaliplatin] (10000 nM)	96.6	108	99.1	–	79.2	128	96.8	98.3	92.8	–	107	–	93.5	62	98.6	124	93	100	101	106	85.5	91.5	102	86.5	99.8	97.3	98.4	102	97	86.4	91.5	98.4	89.5	97.2	86.9	91.9	68.5
Nc1nc2[nH]cc(CCc3ccc(C(=O)N[C@@H](CCC(=O)O)C(=O)O)cc3)c2c(=O)[nH]1 [Pemetrexed] (10000 nM)	77.3	98.9	99.8	102	87	81.1	96.7	91.5	99	111	65.3	72	70.5	80.4	93	–	98.8	39	97.2	81.9	88.5	68.3	54.2	93.7	91	75.9	65.9	82.7	18.5	91.7	48	78.1	97.5	93.3	89.7	65.9	119
CNC(=O)c1cc(Oc2ccc(NC(=O)Nc3cc(C(C)(C)C)nn3-c3ccc4ncccc4c3)c(F)c2)ccn1 [Rebastinib] (1000 nM)	89.2	77.5	85.9	101	99.7	–	99.7	100	107	–	106	101	102	85.7	104	64	101	81.6	71.3	69.2	118	74.1	87.5	96.7	102	102	99.8	95.7	116	102	77.8	112	111	102	62.2	92.1	115
CCCS(=O)(=O)Nc1ccc(F)c(C(=O)c2c[nH]c3ncc(-c4ccc(Cl)cc4)cc23)c1F [Vemurafenib] (10000 nM)	95.4	89.5	97.3	75.7	65.3	109	77.1	95.8	78.4	98.9	71.5	–	87	92.7	101	148	97.7	82.6	71.8	91.1	94.7	78.4	85.1	2.81	86.1	86.4	84	70.7	70.7	95.8	86.3	66.8	89.3	57.2	80.1	71	100
